Data from PMC7026387, “Improved Prediction of Aqueous Solubility of Novel Compounds by Going Deeper With Deep Learning” (Frontiers in Oncology, 2020).
Converted amounts (≈) assume the structure as drawn. Like-named read-outs stand apart in the source and are kept apart here. One block for each molecule: values may come before it.

Assays:
[1] = cited from earlier work; for LogS_exp: experimental aqueous solubility: literature S values converted to mol/L and transformed into logS; for Experimental S value: room-temperature, around pH 7.0
[2] = Aqueous solubility (pH 7) by modified shake flask method and RP-HPLC; assay type: physicochemical
Description: In one of our drugs discovering projects toward antitumor therapeutics, a series of novel FLT3 inhibitors were designed and synthesized using the structure-based drug design methods. The aqueous solubilities (pH = 7) of these compounds were measured using the modified shake flask method and RP-HPLC ([34], [35]). Each compound was added into a 1.5 mL Eppendorf tube containing Milli-Q water (1 mL) to form the precipitates at 25°C. Then the mixture was subjected to a solubility-equilibrium stage. The tube was shook at 300 rpm at 25°C for 24 h. The precipitate was separated by centrifugation at 23,000 g for 20 min. Subsequently, 0.25 mL of supernatant was transferred into a 1 mL Eppendorf tube, and it was centrifuged again with the same settings used above. The supernatant was then used for HPLC analysis. An Agilent 1260 Infinity LC system (Agilent Technologies, Inc., Santa Clara, California) was used. For HPLC conditions, a ZORBAX SB-C18 column (5 μM, 4.6 × 150 mm; Agilent), a flow rate of 0.8 mL/min for mobile phase, a UV wavelength of 250 nm and a column temperature of 30°C were used. The sample was injected automatically by a mechanical arm and separated by a constant mixture of methanol/PBS (pH 5.6), 90:10. For each compound, a standard curve consisting of four concentrations was established. The synthetic methods of all but compound SC5 and SC6 have been published in literatures ([36]–[39]). The synthetic methods of SC5 and SC6 are described in Supplementary Method 1.

[3] = method NA, ref Hamdy et al., 2017
[4] = by HPLC, ref Thompson et al., 2018
[5] = Milli-Q water, pH 7, 25°C, 24 h shaking, RP-HPLC, read-out: Experimental S value

SMILES: COc1cc(OC)c2c(c1Cl)O[C@]1(C2=O)C(OCc2ccccc2)=C/C(=N\OCC(=O)O)C[C@H]1C (relative stereo) [NC5]
- LogS_exp: experimental aqueous solubility [1]: -4.254 logarithmic units of mol/L
- Experimental S value [1, 3]: 27.94 µg/mL

SMILES: O=C(/C=C(/C=C/c1cccnc1)NCCO)/C=C/c1cccnc1 [NC6]
- Experimental S value ([1]; by shake flask method and colorimetry, ref Theppawong et al., 2018): 4350.8 µM
- LogS_exp: experimental aqueous solubility [1]: -2.361 logarithmic units of mol/L

SMILES: COC1=C/C(=N/NC(=O)c2ccncc2)C[C@@H](C)[C@]12Oc1c(Cl)c(OC)cc(OC)c1C2=O (relative stereo) [NC4]
- LogS_exp: experimental aqueous solubility [1]: -4.576 logarithmic units of mol/L
- Experimental S value [1, 3]: 12.53 µg/mL

SMILES: CN(Cc1ccc(C(F)(F)F)cc1)c1cc(C(=O)Nc2ncn(C)n2)ncn1 [NC2]
- LogS_exp: experimental aqueous solubility [1]: -3.762 logarithmic units of mol/L
- Experimental S value ([1]; method NA, ref Wilson et al., 2017): 173 µM

SMILES: N#Cc1csc(-c2cc(N)[nH]n2)c1 [SC2]
- solubility thermodynamic at 24 h ([2]; pH 7, water): 31.7 µg/mL (≈ 167 µM)

SMILES: O=[N+]([O-])c1cn2c(n1)OC[C@H](Oc1ccc(C(F)(F)F)cn1)C2 [NC7]
- Experimental S value [1, 4]: 110 µg/mL

SMILES: N#CCC(=O)c1cc(C#N)cs1 [SC1]
- solubility thermodynamic at 24 h [2, 5]: 30.7 µg/mL (≈ 174 µM)

SMILES: O=C(Nc1ccccc1OC(F)(F)F)N[C@@H]1COc2nc([N+](=O)[O-])cn2C1 [NC3]
- Experimental S value [1, 4]: 22 µg/mL
- LogS_exp: experimental aqueous solubility [1]: -4.246 logarithmic units of mol/L

The remaining lines, values ahead:

- Experimental S value ([2]; 24 h, pH 7): 0.019714 mg/mL
- solubility thermodynamic at 24 h ([2]; pH 7, water): 19.7 µg/mL (≈ 41.8 µM)
- melting point: 236 to 238 °C
SMILES: COc1ccc(Oc2ccc3c(NC(=O)c4ccc(NC5CCN(C)CC5)cc4)n[nH]c3c2)cc1 [SC5]

- solubility thermodynamic at 24 h ([2]; pH 7, water): < 10 µg/mL
SMILES: CN1CCC(Nc2ccc(C(=O)Nc3n[nH]c4cc(Oc5ccccc5)ccc34)cc2)CC1 [SC6]

- solubility thermodynamic at 24 h [2, 5]: 60.7 µg/mL (≈ 124 µM)
SMILES: Cc1nc(Nc2c[nH]nc2C(=O)Nc2ccc(CN3CCOCC3)cc2)c2cc(C(C)C)sc2n1 [SC3]

- Experimental S value ([2]; Milli-Q water, pH 7, 25°C, 24 h shaking, RP-HPLC): 0.10491 mg/mL
- solubility thermodynamic at 24 h [2, 5]: 105 µg/mL (≈ 185 µM)
SMILES: Cc1nc2c(c(-c3nc(Nc4c[nH]nc4C(=O)Nc4ccc(N5CCNCC5)cc4)c4ccsc4n3)n1)CCCC2 [SC4]
